How the values were obtained:
kinases (468) [1] = biological target: kinases (468) (Homo sapiens, UniProt O00329); settings: PIK3CD; 1000 nM
kinases (468) [2] = biological target: kinases (468) (Homo sapiens, UniProt O00444); settings: PLK4; 1000 nM
kinases (468) [3] = biological target: kinases (468) (Homo sapiens, UniProt O43683); settings: BUB1; 1000 nM
kinases (468) [4] = biological target: kinases (468) (Homo sapiens, UniProt O94804); settings: LOK (STK10); 1000 nM
kinases (468) [5] = biological target: kinases (468) (Homo sapiens, UniProt P00533, DEL746-750); settings: EGFR(E746-A750del); 1000 nM
kinases (468) [6] = biological target: kinases (468) (Homo sapiens, UniProt P07948); settings: LYN; 1000 nM
kinases (468) [7] = biological target: kinases (468) (Homo sapiens, UniProt P07949); settings: RET; 1000 nM
kinases (468) [8] = biological target: kinases (468) (Homo sapiens, UniProt P08581, M1250T); settings: MET(M1250T); 1000 nM
kinases (468) [9] = biological target: kinases (468) (Homo sapiens, UniProt P21860); settings: ERBB3; 1000 nM
kinases (468) [10] = biological target: kinases (468) (Homo sapiens, UniProt P29376); settings: LTK; 1000 nM
kinases (468) [11] = biological target: kinases (468) (Homo sapiens, UniProt P31751); settings: AKT2; 1000 nM
kinases (468) [12] = biological target: kinases (468) (Homo sapiens, UniProt P36888, R834Q); settings: FLT3(R834Q); 1000 nM
kinases (468) [13] = biological target: kinases (468) (Homo sapiens, UniProt P42336, H1047Y); settings: PIK3CA(H1047Y); 1000 nM
kinases (468) [14] = biological target: kinases (468) (Homo sapiens, UniProt P42679); settings: CTK (MATK); 1000 nM
kinases (468) [15] = biological target: kinases (468) (Homo sapiens, UniProt P45983); settings: JNK1 (MAPK8); 1000 nM
kinases (468) (Homo sapiens, UniProt P45983), sequence (P45983 whole entry): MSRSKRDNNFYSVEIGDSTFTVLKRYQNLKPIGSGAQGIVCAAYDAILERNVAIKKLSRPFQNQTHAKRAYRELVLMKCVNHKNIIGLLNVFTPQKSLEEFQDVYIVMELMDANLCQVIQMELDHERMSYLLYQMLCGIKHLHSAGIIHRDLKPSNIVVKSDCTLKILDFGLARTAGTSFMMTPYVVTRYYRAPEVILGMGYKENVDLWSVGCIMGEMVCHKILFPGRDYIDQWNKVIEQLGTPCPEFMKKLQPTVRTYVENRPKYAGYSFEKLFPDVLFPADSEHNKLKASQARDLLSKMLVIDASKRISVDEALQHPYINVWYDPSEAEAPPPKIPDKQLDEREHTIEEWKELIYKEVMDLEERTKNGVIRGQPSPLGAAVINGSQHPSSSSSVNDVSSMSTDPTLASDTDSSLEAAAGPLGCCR

kinases (468) [16] = biological target: kinases (468) (Homo sapiens, UniProt P51955); settings: NEK2; 1000 nM
kinases (468) [17] = biological target: kinases (468) (Homo sapiens, UniProt P52564); settings: MEK6 (MAP2K6); 1000 nM
kinases (468) [18] = biological target: kinases (468) (Homo sapiens, UniProt P53355); settings: DAPK1; 1000 nM
kinases (468) [19] = biological target: kinases (468) (Homo sapiens, UniProt Q13188); settings: MST2 (STK3); 1000 nM
kinases (468) (Homo sapiens, UniProt Q13188), sequence (Q13188 whole entry): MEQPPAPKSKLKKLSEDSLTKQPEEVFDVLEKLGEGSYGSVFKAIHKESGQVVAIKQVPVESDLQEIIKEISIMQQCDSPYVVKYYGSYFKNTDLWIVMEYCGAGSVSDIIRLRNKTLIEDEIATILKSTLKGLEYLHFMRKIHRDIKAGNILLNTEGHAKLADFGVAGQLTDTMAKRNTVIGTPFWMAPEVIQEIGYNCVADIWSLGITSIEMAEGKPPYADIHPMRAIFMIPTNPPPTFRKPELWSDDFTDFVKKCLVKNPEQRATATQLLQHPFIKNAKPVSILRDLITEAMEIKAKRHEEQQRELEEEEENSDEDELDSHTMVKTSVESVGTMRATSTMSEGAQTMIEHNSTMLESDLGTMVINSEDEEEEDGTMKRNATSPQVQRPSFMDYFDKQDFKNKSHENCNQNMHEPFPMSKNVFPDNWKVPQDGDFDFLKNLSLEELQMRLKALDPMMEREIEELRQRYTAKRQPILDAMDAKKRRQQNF

kinases (468) [20] = biological target: kinases (468) (Homo sapiens, UniProt Q13464); settings: kinase ROCK1 (Entrez ROCK1); compound concentration 1000 nM
kinases (468) [21] = biological target: kinases (468) (Homo sapiens, UniProt Q13873); settings: BMPR2; 1000 nM
kinases (468) [22] = biological target: kinases (468) (Homo sapiens, UniProt Q14164); settings: IKK-epsilon (IKBKE); 1000 nM
kinases (468) [23] = biological target: kinases (468) (Homo sapiens, UniProt Q16566); settings: CAMK4; 1000 nM
kinases (468) (Homo sapiens, UniProt Q16566), sequence (Q16566 whole entry): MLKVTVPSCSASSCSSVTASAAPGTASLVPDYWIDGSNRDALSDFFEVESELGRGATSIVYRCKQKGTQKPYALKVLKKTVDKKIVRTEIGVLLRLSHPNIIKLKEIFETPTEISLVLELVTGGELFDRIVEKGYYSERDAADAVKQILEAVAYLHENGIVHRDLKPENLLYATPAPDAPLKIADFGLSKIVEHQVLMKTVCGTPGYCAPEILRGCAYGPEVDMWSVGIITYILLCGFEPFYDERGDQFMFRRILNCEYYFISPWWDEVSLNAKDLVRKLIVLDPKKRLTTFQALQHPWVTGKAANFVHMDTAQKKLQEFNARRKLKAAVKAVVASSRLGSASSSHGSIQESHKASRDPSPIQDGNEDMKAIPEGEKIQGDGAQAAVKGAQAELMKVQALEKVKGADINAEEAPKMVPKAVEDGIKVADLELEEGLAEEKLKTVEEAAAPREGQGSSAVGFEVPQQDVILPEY

kinases (468) [24] = biological target: kinases (468) (Homo sapiens, UniProt Q16659); settings: ERK3 (MAPK6); 1000 nM
kinases (468) [25] = biological target: kinases (468) (Homo sapiens, UniProt Q16816); settings: PHKG1; 1000 nM
kinases (468) [26] = biological target: kinases (468) (Homo sapiens, UniProt Q8IVH8); settings: MAP4K3; 1000 nM
kinases (468) [27] = biological target: kinases (468) (Homo sapiens, UniProt Q8IYT8); settings: kinase ULK2 (Entrez ULK2); compound concentration 1000 nM
kinases (468) [28] = biological target: kinases (468) (Homo sapiens, UniProt Q8WU08); settings: kinase YANK1 (Entrez STK32A); compound concentration 1000 nM
kinases (468) [29] = biological target: kinases (468) (Homo sapiens, UniProt Q96BR1); settings: kinase SGK3 (Entrez SGK3); compound concentration 1000 nM
kinases (468) [30] = biological target: kinases (468) (Homo sapiens, UniProt Q96J92); settings: kinase WNK4 (Entrez WNK4); compound concentration 1000 nM
kinases (468) (Homo sapiens, UniProt Q96J92), sequence (Q96J92 whole entry): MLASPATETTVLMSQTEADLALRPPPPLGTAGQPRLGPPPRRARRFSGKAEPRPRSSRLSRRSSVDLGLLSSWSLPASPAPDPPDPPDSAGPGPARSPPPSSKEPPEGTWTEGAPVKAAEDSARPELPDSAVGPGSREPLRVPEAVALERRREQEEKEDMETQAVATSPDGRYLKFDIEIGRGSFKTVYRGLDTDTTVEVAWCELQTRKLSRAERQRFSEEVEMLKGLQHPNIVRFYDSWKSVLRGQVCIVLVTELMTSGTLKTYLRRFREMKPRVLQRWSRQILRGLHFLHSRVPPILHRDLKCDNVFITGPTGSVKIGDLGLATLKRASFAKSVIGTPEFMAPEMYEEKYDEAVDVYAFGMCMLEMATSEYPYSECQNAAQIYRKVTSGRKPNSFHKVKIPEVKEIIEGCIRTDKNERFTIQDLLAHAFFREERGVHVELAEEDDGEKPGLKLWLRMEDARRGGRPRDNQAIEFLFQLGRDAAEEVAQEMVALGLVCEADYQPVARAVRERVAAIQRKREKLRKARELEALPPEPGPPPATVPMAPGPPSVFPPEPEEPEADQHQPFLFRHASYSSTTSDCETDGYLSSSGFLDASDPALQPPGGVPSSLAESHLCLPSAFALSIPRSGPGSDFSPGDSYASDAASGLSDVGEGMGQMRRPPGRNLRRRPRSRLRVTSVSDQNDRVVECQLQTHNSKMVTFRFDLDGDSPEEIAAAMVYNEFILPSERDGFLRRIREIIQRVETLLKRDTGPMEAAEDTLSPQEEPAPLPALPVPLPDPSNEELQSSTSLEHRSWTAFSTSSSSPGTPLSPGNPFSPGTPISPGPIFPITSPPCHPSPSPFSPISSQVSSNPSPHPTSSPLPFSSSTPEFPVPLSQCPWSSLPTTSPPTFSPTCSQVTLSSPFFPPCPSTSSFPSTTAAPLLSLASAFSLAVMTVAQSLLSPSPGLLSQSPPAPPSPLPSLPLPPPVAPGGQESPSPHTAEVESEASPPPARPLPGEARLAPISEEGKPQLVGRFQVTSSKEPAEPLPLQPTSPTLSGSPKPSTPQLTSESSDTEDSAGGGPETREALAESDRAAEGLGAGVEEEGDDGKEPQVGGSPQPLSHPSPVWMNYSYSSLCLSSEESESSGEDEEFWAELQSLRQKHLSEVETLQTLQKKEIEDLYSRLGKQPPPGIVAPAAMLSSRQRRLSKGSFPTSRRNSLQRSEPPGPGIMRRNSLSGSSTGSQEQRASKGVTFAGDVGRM

kinases (468) [31] = biological target: kinases (468) (Homo sapiens, UniProt Q9BRS2); settings: kinase RIOK1 (Entrez RIOK1); compound concentration 1000 nM
kinases (468) [32] = biological target: kinases (468) (Homo sapiens, UniProt Q9P286); settings: PAK7; 1000 nM
kinases (468) [33] = biological target: kinases (468) (Homo sapiens, UniProt Q9UBE8); settings: NLK; 1000 nM
kinases (468) (Homo sapiens, UniProt Q9UBE8), sequence (Q9UBE8 whole entry): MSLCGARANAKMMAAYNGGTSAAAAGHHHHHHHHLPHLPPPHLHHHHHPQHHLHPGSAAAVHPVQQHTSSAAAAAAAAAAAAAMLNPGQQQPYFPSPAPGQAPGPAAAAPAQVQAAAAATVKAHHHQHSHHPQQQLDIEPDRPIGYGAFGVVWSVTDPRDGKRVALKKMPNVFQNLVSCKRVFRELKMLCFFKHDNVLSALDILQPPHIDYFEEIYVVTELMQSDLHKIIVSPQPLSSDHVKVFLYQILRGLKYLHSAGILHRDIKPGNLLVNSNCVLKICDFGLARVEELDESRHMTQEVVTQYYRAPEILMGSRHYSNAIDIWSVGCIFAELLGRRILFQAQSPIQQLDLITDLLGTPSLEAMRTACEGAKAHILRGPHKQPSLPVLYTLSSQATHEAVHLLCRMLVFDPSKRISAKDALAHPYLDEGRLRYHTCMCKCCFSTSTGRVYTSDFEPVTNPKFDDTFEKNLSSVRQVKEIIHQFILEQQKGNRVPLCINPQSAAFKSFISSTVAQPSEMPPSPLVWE

kinases (468) [34] = biological target: kinases (468) (Homo sapiens, UniProt Q9UBF8); settings: PIK4CB (PI4KB); 1000 nM
kinases (468) (Homo sapiens, UniProt Q9UBF8), sequence (Q9UBF8 whole entry): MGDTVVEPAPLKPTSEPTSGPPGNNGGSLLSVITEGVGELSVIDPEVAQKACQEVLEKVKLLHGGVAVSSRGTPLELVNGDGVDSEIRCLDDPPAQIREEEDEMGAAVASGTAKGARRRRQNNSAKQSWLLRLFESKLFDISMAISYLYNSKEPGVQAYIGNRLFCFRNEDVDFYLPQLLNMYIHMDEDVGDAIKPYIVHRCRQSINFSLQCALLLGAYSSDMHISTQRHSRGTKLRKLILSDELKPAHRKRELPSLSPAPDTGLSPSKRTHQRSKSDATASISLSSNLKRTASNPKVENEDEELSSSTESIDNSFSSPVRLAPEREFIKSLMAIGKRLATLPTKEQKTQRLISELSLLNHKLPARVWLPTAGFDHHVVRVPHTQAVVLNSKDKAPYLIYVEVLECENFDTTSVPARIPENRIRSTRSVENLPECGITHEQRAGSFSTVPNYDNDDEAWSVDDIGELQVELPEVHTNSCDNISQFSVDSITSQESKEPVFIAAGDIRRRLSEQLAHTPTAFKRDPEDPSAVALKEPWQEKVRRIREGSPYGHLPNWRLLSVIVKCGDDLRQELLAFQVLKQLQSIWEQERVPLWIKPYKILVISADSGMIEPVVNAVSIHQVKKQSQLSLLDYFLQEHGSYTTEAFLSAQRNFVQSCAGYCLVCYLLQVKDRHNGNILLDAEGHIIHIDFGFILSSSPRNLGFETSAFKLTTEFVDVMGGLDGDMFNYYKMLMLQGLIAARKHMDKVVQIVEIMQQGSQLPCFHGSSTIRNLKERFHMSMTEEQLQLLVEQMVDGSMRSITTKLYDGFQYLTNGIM

kinases (468) [35] = biological target: kinases (468) (Homo sapiens, UniProt Q9Y2H1); settings: NDR2 (STK38L); 1000 nM

kinases (468) (Homo sapiens, UniProt O00444), sequence (O00444 whole entry): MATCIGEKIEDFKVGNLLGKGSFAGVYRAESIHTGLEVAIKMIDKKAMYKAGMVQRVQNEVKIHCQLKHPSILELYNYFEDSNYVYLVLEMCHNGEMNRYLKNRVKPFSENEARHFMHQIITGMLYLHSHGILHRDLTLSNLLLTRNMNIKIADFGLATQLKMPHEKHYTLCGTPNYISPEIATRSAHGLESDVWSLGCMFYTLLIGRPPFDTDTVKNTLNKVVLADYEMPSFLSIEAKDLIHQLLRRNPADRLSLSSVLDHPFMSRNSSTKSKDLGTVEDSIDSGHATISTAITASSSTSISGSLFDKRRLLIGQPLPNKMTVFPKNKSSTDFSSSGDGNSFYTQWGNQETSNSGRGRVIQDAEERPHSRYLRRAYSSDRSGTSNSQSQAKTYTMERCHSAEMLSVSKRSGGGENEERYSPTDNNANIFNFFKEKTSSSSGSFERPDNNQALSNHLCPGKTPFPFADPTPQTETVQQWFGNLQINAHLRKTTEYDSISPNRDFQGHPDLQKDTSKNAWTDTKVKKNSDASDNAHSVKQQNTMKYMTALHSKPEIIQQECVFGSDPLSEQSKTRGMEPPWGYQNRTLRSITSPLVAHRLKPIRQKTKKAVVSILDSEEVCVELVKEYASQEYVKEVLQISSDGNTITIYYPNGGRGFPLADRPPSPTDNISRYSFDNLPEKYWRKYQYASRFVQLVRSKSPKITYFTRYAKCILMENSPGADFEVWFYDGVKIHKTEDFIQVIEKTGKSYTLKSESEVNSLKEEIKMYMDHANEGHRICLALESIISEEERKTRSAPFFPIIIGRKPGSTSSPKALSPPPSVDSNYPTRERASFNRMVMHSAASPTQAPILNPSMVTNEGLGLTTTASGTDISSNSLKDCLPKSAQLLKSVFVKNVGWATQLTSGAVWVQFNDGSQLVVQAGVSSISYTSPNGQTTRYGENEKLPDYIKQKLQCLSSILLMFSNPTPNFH

C[C@H]1C[C@@H](O)CN(c2ncc(Cl)c(Nc3ccc4c(c3)c3c(c(=O)n4C)OCC(F)(F)[C@H](C4CC4)N3)n2)C1 [CCT373566_9A]
Percent Control (kinases (468) [1]): 90% | Percent Control (kinases (468) [2]): 100% | Percent Control (kinases (468) [3]): 94% | Percent Control (kinases (468) [4]): 100% | Percent Control (kinases (468) [5]): 100% | Percent Control (kinases (468) [6]): 88% | Percent Control (kinases (468) [7]): 99% | Percent Control (kinases (468) [8]): 100% | Percent Control (kinases (468) [9]): 85% | Percent Control (kinases (468) [10]): 100% | Percent Control (kinases (468) [11]): 100% | Percent Control (kinases (468) [12]): 100% | Percent Control (kinases (468) [13]): 94% | Percent Control (kinases (468) [14]): 100% | Percent Control (kinases (468) [15]): 85% | Percent Control (kinases (468) [16]): 92% | Percent Control (kinases (468) [17]): 89% | Percent Control (kinases (468) [18]): 83% | Percent Control (kinases (468) [19]): 100% | Percent Control (kinases (468) [20]): 93% | Percent Control (kinases (468) [21]): 100% | Percent Control (kinases (468) [22]): 100% | Percent Control (kinases (468) [23]): 100% | Percent Control (kinases (468) [24]): 100% | Percent Control (kinases (468) [25]): 97% | Percent Control (kinases (468) [26]): 100% | Percent Control (kinases (468) [27]): 100% | Percent Control (kinases (468) [28]): 98% | Percent Control (kinases (468) [29]): 99% | Percent Control (kinases (468) [30]): 42% | Percent Control (kinases (468) [31]): 78% | Percent Control (kinases (468) [32]): 96% | Percent Control (kinases (468) [33]): 100% | Percent Control (kinases (468) [34]): 94% | Percent Control (kinases (468) [35]): 98%

Reference: publication PMC9234961 (Journal of Medicinal Chemistry, 2022)
